Two compounds from patent US20240043429A1, “TRIAZOLO PYRAZINE COMPOUND AND USE THEREOF” (TECHNODERMA MEDICINES, INC., priority 2020, published 2024) can be followed below.

What all share (type): biochemical
For one test, the target named is Tyk2 (Homo sapiens, UniProt P29597). Kind of test: Enzyme activity inhibition of JAK kinases (ULight-JAK substrate, Eu-antibody): Tyk2. To be noted: ATP 10 μM, 1 hour reaction at room temperature; read-out: Tyk2 half-maximum inhibitory concentration. The procedure: (§1) 1× test buffer: The test buffer was prepared, and diluted with deionized water (deionized water: test buffer=9:1) to obtain the 1×test buffer. 4× kinase solution: JAK kinase was diluted 4-fold with the kinase reaction buffer to a final concentration (JAK1: 80 nM, JAK2/JAK3/Tyk2: 4 nM). 4×substrate solution: ULight™-JAK (Tyr1023) substrate was diluted with the kinase reaction buffer to 200 nM (final concentration: 50 nM). 4× ATP solution: ATP was diluted 4-fold with the kinase reaction buffer to a final concentration (JAK1: 160 μM, JAK2/JAK3/Tyk2: 40 μM). 4× test compound solution: The test compound was dissolved with DMSO to prepare 10 mM stock solutions, and diluted 3-fold serially to required concentrations, 10 concentrations were set for each compound, and final concentrations of the test compound ranged from 10 μM to 0.5 nM. 4× enzyme reaction stop solution: 1× test buffer was used dissolve EDTA to 40 mM (final concentration of EDTA: 10 mM). 4× test antibody solution: Eu-labeled test antibody (anti-phosphotyrosine (PT66)) was diluted with 1× test buffer to 8 nM (final concentration of antibody: 2 nM). […] After incubation of the antibody, a signal value of each well was measured via Envision plate reader. […]

The target of a further test is JAK2 (Homo sapiens, UniProt O60674). Description: Enzyme activity inhibition of JAK kinases (ULight-JAK substrate, Eu-antibody): JAK2. To be noted: JAK2 1 nM, ATP 10 μM, 1 hour reaction at room temperature; read-out: JAK2 half-maximum inhibitory concentration. The procedure: as §1
The target in the next test is JAK1 (Homo sapiens, UniProt P23458). Kind of test: Enzyme activity inhibition of JAK kinases (ULight-JAK substrate, Eu-antibody): JAK1. Conditions: JAK1 20 nM, ATP 40 μM, 2 hours reaction at room temperature; read-out: JAK1 half-maximum inhibitory concentration. On the procedure: as §1
Chain of JAK1 (P23458 whole entry): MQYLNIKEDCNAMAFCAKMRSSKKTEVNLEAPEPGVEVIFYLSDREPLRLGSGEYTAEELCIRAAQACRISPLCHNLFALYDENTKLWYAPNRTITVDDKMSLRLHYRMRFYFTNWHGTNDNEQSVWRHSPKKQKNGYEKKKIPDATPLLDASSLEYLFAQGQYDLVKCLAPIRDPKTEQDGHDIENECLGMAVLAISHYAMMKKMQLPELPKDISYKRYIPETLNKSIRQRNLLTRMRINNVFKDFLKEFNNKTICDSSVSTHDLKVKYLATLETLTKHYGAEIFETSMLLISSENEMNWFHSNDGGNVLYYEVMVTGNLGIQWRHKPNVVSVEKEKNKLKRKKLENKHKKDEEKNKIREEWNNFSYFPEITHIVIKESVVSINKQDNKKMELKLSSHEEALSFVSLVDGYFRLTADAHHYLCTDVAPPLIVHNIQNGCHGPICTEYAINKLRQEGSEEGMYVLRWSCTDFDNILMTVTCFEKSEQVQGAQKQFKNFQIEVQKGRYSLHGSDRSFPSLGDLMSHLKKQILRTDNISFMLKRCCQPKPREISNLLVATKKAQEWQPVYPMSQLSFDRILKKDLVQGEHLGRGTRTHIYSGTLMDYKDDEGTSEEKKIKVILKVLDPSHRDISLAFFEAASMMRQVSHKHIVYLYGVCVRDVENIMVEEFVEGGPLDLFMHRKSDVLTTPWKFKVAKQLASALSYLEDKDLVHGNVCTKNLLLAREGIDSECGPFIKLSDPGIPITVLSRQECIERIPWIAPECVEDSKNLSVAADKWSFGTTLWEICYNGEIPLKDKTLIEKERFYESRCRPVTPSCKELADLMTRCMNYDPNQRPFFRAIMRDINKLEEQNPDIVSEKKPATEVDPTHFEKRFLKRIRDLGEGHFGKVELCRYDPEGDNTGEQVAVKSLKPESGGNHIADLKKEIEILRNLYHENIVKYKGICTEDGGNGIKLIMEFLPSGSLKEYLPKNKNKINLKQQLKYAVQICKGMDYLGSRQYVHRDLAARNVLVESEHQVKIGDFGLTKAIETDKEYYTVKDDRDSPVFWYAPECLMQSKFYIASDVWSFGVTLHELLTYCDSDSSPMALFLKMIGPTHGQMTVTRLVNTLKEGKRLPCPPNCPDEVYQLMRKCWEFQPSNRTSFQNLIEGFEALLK

Chain of JAK2 (O60674 whole entry): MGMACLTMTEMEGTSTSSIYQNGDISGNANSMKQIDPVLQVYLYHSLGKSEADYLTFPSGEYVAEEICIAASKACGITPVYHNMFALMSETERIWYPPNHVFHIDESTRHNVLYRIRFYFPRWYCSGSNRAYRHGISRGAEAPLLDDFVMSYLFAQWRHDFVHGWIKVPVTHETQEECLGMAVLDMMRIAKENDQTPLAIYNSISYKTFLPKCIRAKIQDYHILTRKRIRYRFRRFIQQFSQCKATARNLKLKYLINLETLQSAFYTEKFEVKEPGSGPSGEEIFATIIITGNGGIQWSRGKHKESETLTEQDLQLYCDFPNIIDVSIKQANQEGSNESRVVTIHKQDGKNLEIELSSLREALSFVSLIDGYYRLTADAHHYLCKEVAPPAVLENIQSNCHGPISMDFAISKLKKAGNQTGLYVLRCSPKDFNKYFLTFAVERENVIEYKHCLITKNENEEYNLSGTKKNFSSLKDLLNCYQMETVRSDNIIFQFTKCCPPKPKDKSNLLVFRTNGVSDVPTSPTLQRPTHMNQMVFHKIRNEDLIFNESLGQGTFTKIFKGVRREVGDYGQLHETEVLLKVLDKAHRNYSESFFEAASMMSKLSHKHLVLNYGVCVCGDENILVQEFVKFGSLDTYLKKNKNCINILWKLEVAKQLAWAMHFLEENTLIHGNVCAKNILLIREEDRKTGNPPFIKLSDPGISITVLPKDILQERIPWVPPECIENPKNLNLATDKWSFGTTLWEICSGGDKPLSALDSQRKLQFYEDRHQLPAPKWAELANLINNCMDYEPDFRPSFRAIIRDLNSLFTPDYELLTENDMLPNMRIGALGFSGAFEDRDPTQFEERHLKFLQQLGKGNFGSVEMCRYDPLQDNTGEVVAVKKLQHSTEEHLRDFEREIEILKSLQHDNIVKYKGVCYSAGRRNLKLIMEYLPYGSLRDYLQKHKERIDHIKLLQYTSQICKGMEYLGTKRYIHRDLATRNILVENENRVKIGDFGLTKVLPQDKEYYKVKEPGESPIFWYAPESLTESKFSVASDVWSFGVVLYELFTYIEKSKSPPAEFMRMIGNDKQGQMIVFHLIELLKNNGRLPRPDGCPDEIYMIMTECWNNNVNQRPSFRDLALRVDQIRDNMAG
Chain of Tyk2 (P29597 whole entry): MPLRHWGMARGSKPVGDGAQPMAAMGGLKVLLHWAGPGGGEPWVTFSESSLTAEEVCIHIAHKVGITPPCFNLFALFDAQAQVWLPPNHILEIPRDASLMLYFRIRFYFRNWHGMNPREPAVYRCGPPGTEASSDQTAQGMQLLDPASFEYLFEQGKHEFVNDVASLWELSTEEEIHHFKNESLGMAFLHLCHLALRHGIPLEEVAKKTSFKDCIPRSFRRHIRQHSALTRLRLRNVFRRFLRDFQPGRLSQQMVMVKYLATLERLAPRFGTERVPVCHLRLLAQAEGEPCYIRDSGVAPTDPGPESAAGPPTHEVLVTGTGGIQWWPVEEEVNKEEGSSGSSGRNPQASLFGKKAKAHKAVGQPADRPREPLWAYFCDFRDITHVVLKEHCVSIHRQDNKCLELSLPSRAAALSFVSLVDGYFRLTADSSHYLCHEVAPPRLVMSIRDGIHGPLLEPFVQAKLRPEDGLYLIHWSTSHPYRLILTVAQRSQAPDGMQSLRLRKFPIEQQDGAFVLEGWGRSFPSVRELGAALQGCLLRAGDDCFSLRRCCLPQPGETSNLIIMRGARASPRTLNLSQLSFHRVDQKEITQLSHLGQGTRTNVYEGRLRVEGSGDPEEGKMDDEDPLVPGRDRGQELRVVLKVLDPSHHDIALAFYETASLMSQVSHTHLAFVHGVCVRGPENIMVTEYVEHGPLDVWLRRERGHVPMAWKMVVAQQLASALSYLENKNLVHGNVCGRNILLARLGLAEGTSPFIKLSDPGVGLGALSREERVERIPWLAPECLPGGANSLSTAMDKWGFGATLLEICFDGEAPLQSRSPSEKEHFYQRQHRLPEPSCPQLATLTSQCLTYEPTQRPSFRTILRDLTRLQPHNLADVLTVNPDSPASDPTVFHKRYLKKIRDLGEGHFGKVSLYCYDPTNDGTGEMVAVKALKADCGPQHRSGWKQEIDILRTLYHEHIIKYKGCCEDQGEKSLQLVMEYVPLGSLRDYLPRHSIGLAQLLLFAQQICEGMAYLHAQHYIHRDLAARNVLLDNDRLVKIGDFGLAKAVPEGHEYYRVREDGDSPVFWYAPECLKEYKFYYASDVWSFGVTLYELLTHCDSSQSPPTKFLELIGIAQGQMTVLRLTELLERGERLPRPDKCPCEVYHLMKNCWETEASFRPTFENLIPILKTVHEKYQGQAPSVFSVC

For `Cn1cc(-c2cn3ncnc3c(-c3ccn([C@]4(CC#N)C[C@@H](C#N)C4)c3)n2)cn1` [TDM-181020, (1r,3r)-3-(cyanomethyl)-3-(3-(6-(1-methyl-1H-pyrazol-4-yl)-[1,2,4]triazolo[1,5-a]pyrazin-8-yl)-1H-pyrrol-1-yl)cyclobutane-1-carbonitrile], the figures for the IC50 at Tyk2 and at JAK2 were 111 nM and 2420 nM, respectively.
Consider `Cn1cc(-c2cn3ncnc3c(-c3ccn([C@]4(CC#N)C[C@H](C#N)C4)c3)n2)cn1` [TDM-181021, (1s,3s)-3-(Cyanomethyl)-3-(3-(6-(1-Methyl-1H-Pyrazol-4-Yl)-[1,2,4]Triazolo[1,5-a]Pyrazin-8-Yl)-1H-Pyrrol-1-Yl)Cyclobutane-1-Carbonitrile], for which the IC50 worked out at 14 nM on Tyk2, 138 nM at JAK2 and 1210 nM at JAK1.
